Series [1] concerns U-937. As to the kind of experiment: Cytotoxicity against human U-937 cells assessed as reduction in cell viability at <=30 uM measured after 24 hrs by MTT assay. The format is toxicity, cell-based. Conditions: u-937, 24 h.
The subject of series [2] is HUVEC. Put plainly: Activation of PI3K in cisplatin-treated HUVEC cells assessed as increase PIP3 formation pretreated for 30 mins followed by cisplatin addition by immunoprecipitation analysis. Conditions: Homo sapiens, filed as activator, dose 10-30 µM. The class given is cell-based.
Series [3] concerns HUVEC. As to the kind of experiment: Inhibition of cisplatin-induced store operated Ca2+ release in HUVEC cells at 30 uM preincubated with compound in presence of eNOS inhibitor, N(G)-nitro-L-arginine methyl ester followed by cisplatin stimulation by Fura-2 AM staining based calcium influx assay. The class given is functional, cell-based. Conditions: Homo sapiens.
In series [4] the test system is HUVEC. As to the kind of experiment: Inhibition of cisplatin-induced store operated Ca2+ release in HUVEC cells at 30 uM preincubated with compound in presence of PI3K inhibitor, wortmannin followed by cisplatin stimulation by Fura-2 AM staining based calcium influx assay. The format is functional, cell-based. Conditions: Homo sapiens.
The test system of series [5] is U-937. Put plainly: Inhibition of cisplatin-induced ICAM1 dependent HUVEC cells adhesion to human U-937 cells at 10 to 30 uM preincubated with HUVEC cells for 4.5 hrs in presence of cisplatin and PI3K inhibitor, wortmannin followed by U-937 cell suspension addition and measured after 1 hr by BCECF fluorescent probe based assay. Conditions: dose 10-30 µM, time 5.5 hrs. The class given is functional.

Series [6] relates to HUVEC. Put plainly: Improvement in cisplatin-induced endothelial monolayer integrity in HUVEC cells assessed as increase in transendothelial electric resistance at 30 uM preincubated with compound followed by cisplatin stimulation and measured after 45 mins. The class given is functional, cell-based. Conditions: Homo sapiens.
Series [7] has as its system HUVEC. Put plainly: Improvement in cisplatin-induced endothelial monolayer integrity in HUVEC cells assessed as increase in transendothelial electric resistance at 30 uM preincubated with compound in presence of PI3K inhibitor, wortmannin followed by cisplatin stimulation and measured after 45 mins. The format is functional, cell-based. Conditions: Homo sapiens.
Series [8] addresses T1, Nitric oxide synthase 3 (Homo sapiens) (UniProt P29474).
T1 sequence (whole entry): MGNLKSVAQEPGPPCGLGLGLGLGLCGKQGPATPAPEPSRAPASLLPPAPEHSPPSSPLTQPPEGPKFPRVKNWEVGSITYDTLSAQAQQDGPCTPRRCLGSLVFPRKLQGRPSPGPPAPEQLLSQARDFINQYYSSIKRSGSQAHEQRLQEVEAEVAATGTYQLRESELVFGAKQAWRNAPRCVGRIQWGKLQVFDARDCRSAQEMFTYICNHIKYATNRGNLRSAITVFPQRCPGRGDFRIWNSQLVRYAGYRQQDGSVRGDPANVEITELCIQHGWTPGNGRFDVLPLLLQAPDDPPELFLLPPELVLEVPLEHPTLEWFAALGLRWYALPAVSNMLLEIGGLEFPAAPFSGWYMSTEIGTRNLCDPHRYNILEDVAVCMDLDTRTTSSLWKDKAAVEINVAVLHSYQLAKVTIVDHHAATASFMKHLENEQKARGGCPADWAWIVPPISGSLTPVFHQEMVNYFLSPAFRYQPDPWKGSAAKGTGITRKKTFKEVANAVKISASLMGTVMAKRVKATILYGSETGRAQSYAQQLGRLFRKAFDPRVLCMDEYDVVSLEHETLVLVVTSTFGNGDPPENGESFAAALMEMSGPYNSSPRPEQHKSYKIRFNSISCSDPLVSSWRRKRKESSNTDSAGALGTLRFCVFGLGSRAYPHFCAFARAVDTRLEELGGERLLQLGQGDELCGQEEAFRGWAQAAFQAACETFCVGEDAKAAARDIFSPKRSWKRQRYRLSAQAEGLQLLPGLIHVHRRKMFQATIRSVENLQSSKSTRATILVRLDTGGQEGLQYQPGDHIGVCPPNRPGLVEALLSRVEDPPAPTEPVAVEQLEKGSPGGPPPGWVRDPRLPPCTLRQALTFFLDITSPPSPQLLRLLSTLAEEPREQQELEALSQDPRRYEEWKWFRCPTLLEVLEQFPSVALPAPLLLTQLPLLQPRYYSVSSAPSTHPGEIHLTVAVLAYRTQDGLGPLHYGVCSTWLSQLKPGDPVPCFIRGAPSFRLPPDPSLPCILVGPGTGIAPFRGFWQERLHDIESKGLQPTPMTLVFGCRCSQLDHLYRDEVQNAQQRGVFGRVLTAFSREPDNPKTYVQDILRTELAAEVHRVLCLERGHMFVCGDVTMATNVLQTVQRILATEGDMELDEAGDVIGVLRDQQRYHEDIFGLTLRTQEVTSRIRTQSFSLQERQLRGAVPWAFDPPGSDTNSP
Put plainly: Activation of eNOS activity in cisplatin-treated HUVEC cells assessed as increase in eNOS phosphorylation at Ser1177 residue at 30 uM preincubated with PI3K inhibitor, wortmannin followed by compound addition measured after 5 to 240 mins by Western blot analysis. Conditions: time 5-240 min. The class given is cell-based. For orientation: A western blot detects proteins with antibodies after separation by electrophoresis.

Series [9] relates to HUVEC. Put plainly: Inhibition of cisplatin-induced ICAM-1 mRNA expression in HUVEC cells preincubated for 30 mins followed by cisplatin addition and measured after 24 hrs by RT-PCR analysis. The format is functional, cell-based. Conditions: Homo sapiens, dose 10-30 µM, time 24.5 hrs.
The test system of series [10] is HUVEC. Put plainly: Improvement in cisplatin-induced endothelial monolayer integrity in HUVEC cells assessed as reduction in transmembrane movement of albumin at 30 uM preincubated with compound followed by cisplatin stimulation and measured after 2 hrs. The class given is functional, cell-based. Conditions: Homo sapiens.
Series [11] relates to HUVEC. As to the kind of experiment: Inhibition of cisplatin-induced store operated Ca2+ release in HUVEC cells at 30 uM preincubated with compound followed by cisplatin stimulation by Fura-2 AM staining based calcium influx assay. The format is functional, cell-based. Conditions: Homo sapiens.
Series [12] relates to HUVEC. As to the kind of experiment: Downregulation of cisplatin-induced ICAM1 protein expression in HUVEC cells at 100 uM incubated for 1 hr by Western blot analysis. The class given is functional, cell-based. Conditions: Homo sapiens.
The subject of series [13] is HUVEC. As to the kind of experiment: Induction of NO production in cisplatin-treated HUVEC cells assessed as increase in fluorescence signal at 30 uM preincubated with eNOS inhibitor, N(G)-nitro-L-arginine methyl ester for 3 hrs followed by compound addition and measured immediately by DAF-FM dye based analysis. The format is functional, cell-based. Conditions: Homo sapiens.

Series [14] concerns HUVEC. As to the kind of experiment: Upregulation of cytosolic p65 level in cisplatin-treated HUVEC cells at 30 uM preincubated with eNOS inhibitor, N(G)-nitro-L-arginine methyl ester followed by compound addition and further incubated for 1 hr by Western blot analysis. The class given is functional, cell-based. Conditions: Homo sapiens.
For series [15], the target named is T2, NF-kappa-B inhibitor alpha (Homo sapiens) (UniProt P25963).
T2 sequence (whole entry): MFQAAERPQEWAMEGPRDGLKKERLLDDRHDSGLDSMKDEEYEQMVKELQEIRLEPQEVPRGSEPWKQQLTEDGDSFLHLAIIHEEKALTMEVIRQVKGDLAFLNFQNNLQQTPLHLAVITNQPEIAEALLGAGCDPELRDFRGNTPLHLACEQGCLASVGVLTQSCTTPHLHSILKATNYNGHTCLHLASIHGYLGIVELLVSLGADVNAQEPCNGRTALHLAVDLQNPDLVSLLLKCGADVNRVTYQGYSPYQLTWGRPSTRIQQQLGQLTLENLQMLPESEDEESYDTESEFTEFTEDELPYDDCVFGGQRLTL
Put plainly: Inhibition of cisplatin-induced phosphorylation of IkappaBalpha at Ser32/36 residue in HUVEC cells at 30 uM preincubated with eNOS inhibitor, N(G)-nitro-L-arginine methyl ester followed by compound addition and further incubated for 1 hr by Western blot analysis. The format is cell-based.

Structures are written as SMILES. Active and inactive are the calls of the source. The calls are words filed in the database; no cut-off is given here.

Consider `C=C1CC[C@@H]2[C@](C)(CO)[C@H](O)CC[C@@]2(C)[C@@H]1C/C=C1/C(=O)OC[C@H]1O` [ANDROGRAPHOLIDE], for which the Activity entry is “Non-Toxic” in the series with U-937 [1] and “Dose-Dependent Effect” with HUVEC [2]. For the same molecule, the inhibition entry (in the series on HUVEC [3]; in the series with HUVEC [4]; with U-937 [5]; in series [15]) was “inactive” throughout. In addition, the result in the series on HUVEC [6], with HUVEC [10] and with HUVEC [12] was Active. Also, the outcome (with HUVEC [7]; in [8]; in the series with HUVEC [13]; in the series with HUVEC [14]) was inactive. Also, the inhibition result with HUVEC [9] was “Dose-Dependent Effect”. For the same molecule, the inhibition result with HUVEC [11] was “Active”.

These data come from ChEMBL document CHEMBL5223073, “Andrographolide suppresses cisplatin-induced endothelial hyperpermeability through activation of PI3K/Akt and eNOS -derived nitric oxide” (Bioorg Med Chem, 2020).
